These results are taken from patent publication US20250129370A1, “METHOD FOR REDUCING HEPATIC TRIGLYCERIDES” (ADAERATA, LIMITED PARTNERSHIP, priority 2022, published 2025).

Series [1] concerns 3′-UTR of human PCSK7 mRNAs. The series can be described thus: Dual-luciferase reporter assay, wild-type PCSK7 3′-UTR, HEK293T cells. Format: cell-based. To be noted: wild-type PCSK7 3′-UTR psiCHECK-2, HEK293T. An excerpt: The interactions between the miRNAs and their probable targets on PCSK7 were explored by cloning the potential target regions in psiCHECK-2™ (Promega, USA), a luciferase reporter vector. In psiCHECK-2™, hRluc, the Renilla luciferase gene, is located upstream of the target regions of interest cloned into the psiCHECK-2™ vector downstream of the Renilla gene. The region corresponding to the 3′-UTR of PCSK7 (926-nt sequences in length) that constituted the predicted miRNA response elements was PCR-amplified and cloned downstream of the Renilla luciferase gene in the psiCHECK-2™ vector (Promega, USA). […]
The HEK293T cells were co-transfected through the application of the wild-type psiCHECK-2, the wild-type PCSK7 3′-UTR, the mutant PCSK7 3′-UTR, and the miR-overexpressing vectors so that the direct interactions of the nominated miRNAs with PCSK7 3′-UTR could be investigated. […] Transfection efficiency was monitored by fluorescent microscopy (Nikon TE2000S, Japan) 36 hours following the procedure.
The PsiCHECK-2 reporter construct plasmid contained the Renilla luciferase gene upstream of PCSK7 3′-UTR and an independent firefly luciferase gene as an internal control for normalization. […] Then, LARII Reagent was added, and after 20 minutes, the firefly luciferase activity was measured as a control. Afterward, Renilla activity was determined using Stop & Glo Reagent. […]
(In general: In a reporter assay the amount or activity of a reporter protein is the signal.)

Series [2] concerns mutated form of PCSK7 3′-UTR. The series is described as follows: Luciferase reporter assay, miRNA target site-deleted PCSK7 3′-UTR, HEK293T cells. The class given is cell-based, human. An excerpt:
The interactions between the miRNAs and their probable targets on PCSK7 were explored by cloning the potential target regions in psiCHECK-2™ (Promega, USA), a luciferase reporter vector. In psiCHECK-2™, hRluc, the Renilla luciferase gene, is located upstream of the target regions of interest cloned into the psiCHECK-2™ vector downstream of the Renilla gene. The region corresponding to the 3′-UTR of PCSK7 (926-nt sequences in length) that constituted the predicted miRNA response elements was PCR-amplified and cloned downstream of the Renilla luciferase gene in the psiCHECK-2™ vector (Promega, USA). For the confirmation of whether miRNA response elements (miRNA target sites) on the 3′-UTR of PCSK7 were active and had direct interactions with the miRNAs, different mutants (plasmids) were constructed via splicing by over-hang-extension (SOEing) PCR. For miR-125a-5p and miR-143-3p, each of which has two miRNA response elements on PCSK7 3′-UTR, three different mutant constructs were built. Two constructs were made by deleting a putative miRNA target site, and the third one was made by omitting both putative miRNA target sites in the 3′-UTR sequence of PCSK7. In the miR-409-3p mutant construct, a putative miRNA target site was deleted from the 3′-UTR sequence.
The HEK293T cells were co-transfected through the application of the wild-type psiCHECK-2, the wild-type PCSK7 3′-UTR, the mutant PCSK7 3′-UTR, and the miR-overexpressing vectors so that the direct interactions of the nominated miRNAs with PCSK7 3′-UTR could be investigated. In brief, 150 ng of the wild-type or mutated 3′-UTR constructs and 300 ng of the miRNA-expressing vectors were co-transfected in HEK293T-cultured 48-well plates using FuGENE™ (Invitrogen, USA). Additionally, the psiCHECK-2 and pEGFP-C1 mock vectors were transfected and utilized as controls for luciferase assay and transfection, respectively. Transfection efficiency was monitored by fluorescent microscopy (Nikon TE2000S, Japan) 36 hours following the procedure.
The PsiCHECK-2 reporter construct plasmid contained the Renilla luciferase gene upstream of PCSK7 3′-UTR and an independent firefly luciferase gene as an internal control for normalization. Forty-eight hours after HEK293T co-transfection, the luciferase reporter assay was carried out employing the Dual-Luciferase Reporter Assay System (Promega, USA) with a luminometer (Titertek-Berthold, Germany) in accordance with the manufacturer's protocol. Each sample was performed in triplicate, and the experiment was repeated at least three biological times. In short, a lysis buffer was added to each well after the removal of the media of the cell. Then, LARII Reagent was added, and after 20 minutes, the firefly luciferase activity was measured as a control. Afterward, Renilla activity was determined using Stop & Glo Reagent. The relative luciferase activity was calculated using the following formula: ΔFold Activity of Luciferase (Renilla/Firefly)=Average Renilla/Firefly from Samples A/B.
A luciferase reporter assay further confirmed that miR-125a-5p, miR-143-3p, and miR-409-3p directly targeted the 3′-UTR of the PCSK7 transcript since the negative regulatory effect was lost upon the deletion of the miRNA target sites (miR-125a-5p, miR-143-3p, and miR-409-3p) on the 3′-UTR of the PCSK7 reporter plasmid (FIGS. 28A-B). In this regard, three different mutated miR plasmids were constructed for both miR-125a-5p and miR-143-3p. Single-target sites of each miRNA were omitted individually in two separate plasmids, and the two putative binding sites of the miRNAs were deleted in the other plasmid.

Series [3] has as its system hTfR1. The series is described as follows: Western blot of hTfR1 protein in Huh7 cells co-transfected with miR-125a-5p vector. Format: cell-based, human. An excerpt:
FIGS. 31A-B. Western blot (FIG. 31A) and quantitative (FIG. 31B) analysis of the cellular expression of human TfR1 after the co-transfection of the miR-125a-5p and TfR1-overexpressing vectors in Huh7 cells. No direct effect by miR-125a-5p on TfR1 expression was observed. Here miR-125a-5p was overexpressed at different plasmid DNA ratios of PCSK7: miRNA: 1:2 (2×), 1:3 (3×), and 1:5 (5×). X stands for vector DNA fold for miR-125-5p compared to vector expressing PC7.
In the next step, the effect of miR-125a-5p on PC7 function was determined. […] Thereafter, the impact of miR-125a-5p on the enzymatic function of PC7 was assessed by co-transfecting Huh7 cells with the miR-125a-5p-overexpressing vector, with that coding for the full length of PCSK7, and a plasmid encoding hTfR1 (Guillemot et al., 2013; Durand et al., 2020). […]
Subsequently, proteins were isolated with an ice-cold RIPA buffer (1×), comprising 50 mM of Tris hydrochloride (pH 8), 150 mM of sodium chloride, 0.1% sodium dodecyl sulfate, 1% Nonidet P40, 0.25% sodium deoxycholate, and a cocktail of protease inhibitors (Roche, Oakville, ON, Canada). […] Both PC7 and TfR1 were C-terminally tagged with V5 and detected with a V5-monoclonal antibody (Invitrogen) and membranes were incubated with appropriate primary and secondary antibodies, as reported (Guillemot et al., 2013). […]
For orientation: A western blot detects proteins with antibodies after separation by electrophoresis.

As to “miR-125a-5p: miRNA targeting PCSK7 3′-UTR and exons 14 and 15, overexpressed from pEGFP-C1 precursor vector (UCCCUGAGACCCUUUAACCUGUGA; miRNA expressed from a pEGFP-C1 precursor vector, further chemistry not given here)”, in series [1], the “reduction of relative luciferase activity” value is listed as about 50%. For the same substance, the relative luciferase activity entry is reported as “still decreased” in series [2] (Mut-a, deletion of the first target site); “failed to significantly decrease” in series [2] (Mut-a,b, deletion of both miRNA target sites); “still decreased” in series [2] (Mut-b, deletion of the second target site). Also, the “expression level of the hTfR1 protein” value in series [3] is recorded as “exerted no effect”.
